From patent publication US10532048B2, “Tetrahydroisoquinolin-1-one derivative or salt thereof” (Seldar Pharma Inc., priority 2007, dated 2020)
pIC50: −log10 of the molar value. Read-outs that look alike come from different tables or passages of the source.

Tests used:
male Wistar rat = assay: Restraint stress-induced defecation model; assay type: in vivo; settings: read-out: Inhibitory Rate (%) of number of feces excreted
Description: The compound to be tested of the present test was used by dissolving in water for injection containing 20% propylene glycol+20% Tween 80 or a 0.5% MC (methyl cellulose) solution.
The number of feces excreted during a period from the restriction commencement to 1 hour thereafter was measured. Normal group was put into a separate cage, and number of feces excreted during 1 hour was measured in the same manner.

BB2 receptor [1] = biological target: BB2 receptor (Homo sapiens (Human), UniProt P30550); assay: BB2 receptor binding test (125I [Tyr4] bombesin, PC-3 cell membrane sample); settings: 125I [Tyr4] bombesin 0.075 nM, room temperature 2 hours, read-out: IC50 (50% binding inhibition concentration)
Chain of BB2 receptor (Homo sapiens (Human), UniProt P30550) (P30550 whole entry): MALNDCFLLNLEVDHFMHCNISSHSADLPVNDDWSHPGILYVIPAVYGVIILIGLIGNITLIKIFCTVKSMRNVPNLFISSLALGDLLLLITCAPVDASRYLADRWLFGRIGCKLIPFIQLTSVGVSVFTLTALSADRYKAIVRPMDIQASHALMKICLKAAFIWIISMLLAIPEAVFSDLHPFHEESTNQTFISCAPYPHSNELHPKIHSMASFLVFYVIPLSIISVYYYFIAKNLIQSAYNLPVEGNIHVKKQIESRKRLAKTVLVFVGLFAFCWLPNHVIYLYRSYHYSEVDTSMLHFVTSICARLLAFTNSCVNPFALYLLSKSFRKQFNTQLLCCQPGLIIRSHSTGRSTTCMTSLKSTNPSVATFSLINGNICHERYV
Description: A BB2 receptor binding test was carried out using a membrane sample prepared from a human prostate cancer-derived PC-3 cell. […] The cells detached by a trypsin treatment were added with a 50 mM Tris-HCl buffer (pH 7.4, containing 0.2 mg/ml trypsin inhibitor and 0.2 mg/ml benzamidine), and homogenized by Polytron. The cell suspension was centrifuged at 1,500 rpm for 10 minutes, and the supernatant thus obtained was subjected to 1 hour of ultracentrifugation at 37,000×g. The precipitate was suspended in the aforementioned buffer to a concentration of 0.4 mg protein/ml, and stored at −80° C.
The BB2 receptor binding test was carried out by the following method, and the receptor antagonistic activity of a compound to be tested was calculated. […] Non-specific binding was measured using 1 μM of bombesin. After completion of the incubation, the reaction solution was filtered through a Whatman GF/B filter which had been soaked in 0.5% polyethyleneimine. The radioactivity on the filter was measured using a microplate scintillation counter (Top Count, Perkin-Elmer Co., Ltd.). Further, Ex represents the number of the Example compound.

BB2 receptor [2] = settings: stress-induced defecation model; cited from earlier work
BB2 receptor [3] = settings: abdominal pain model induced by large intestinal distension; cited from earlier work
5-HT3 receptor = 5-HT3 receptor (Homo sapiens (Human), UniProt P46098); settings: IBS patients; cited from earlier work
Chain of 5-HT3 receptor (P46098 24-478): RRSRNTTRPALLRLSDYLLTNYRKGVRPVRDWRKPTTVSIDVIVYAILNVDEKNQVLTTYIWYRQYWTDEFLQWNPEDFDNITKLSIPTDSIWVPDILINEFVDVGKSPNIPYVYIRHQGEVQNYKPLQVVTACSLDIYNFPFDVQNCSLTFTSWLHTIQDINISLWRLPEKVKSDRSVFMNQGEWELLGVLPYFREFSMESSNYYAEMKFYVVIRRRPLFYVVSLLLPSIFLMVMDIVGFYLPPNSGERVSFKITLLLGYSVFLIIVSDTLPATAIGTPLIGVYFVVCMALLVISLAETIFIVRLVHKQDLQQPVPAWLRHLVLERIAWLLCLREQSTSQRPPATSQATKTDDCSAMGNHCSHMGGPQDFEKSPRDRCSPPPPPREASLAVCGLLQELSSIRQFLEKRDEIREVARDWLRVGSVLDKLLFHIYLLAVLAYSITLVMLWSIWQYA

[4] = oral administration 1 mg/kg, 15 minutes before restraint, feces counted for 1 hour

pIC50 (BB2 receptor [1])	Compound	inhibition in vivo at 1 mg/kg (male Wistar rat; [4]) [%]	also measured
8.17	CS(=O)(=O)N[C@H]1CCCC[C@@H]1N1C(=O)c2ccccc2[C@@H](C(=O)NOCc2ccc(CC(=O)O)cc2)[C@@H]1c1ccc(Cl)cc1Cl [Ex 856]	61.4	–
8.17	CS(=O)(=O)NC(=O)c1cccc(CCNC(=O)[C@@H]2c3ccccc3C(=O)N([C@H]3CCCC[C@@H]3NS(C)(=O)=O)[C@H]2c2ccc(Cl)cc2Cl)c1 [Ex 700]	69.8	–
8.05	CS(=O)(=O)N[C@H]1CCCC[C@@H]1N1C(=O)c2ccccc2[C@@H](C(=O)NOCc2cccc(OCCCC(=O)O)c2)[C@@H]1c1ccc(Cl)cc1Cl [Ex 709]	41.5	–
8.17	CS(=O)(=O)N[C@H]1CCCC[C@@H]1N1C(=O)c2ccccc2[C@@H](C(=O)NCCc2cccc(C(F)(F)C(=O)O)c2)[C@@H]1c1ccc(Cl)cc1Cl [Ex 712]	55	–
8.13	CS(=O)(=O)N[C@H]1CCCC[C@@H]1N1C(=O)c2ccccc2[C@@H](C(=O)NCCc2ccc(CC(=O)O)cc2)[C@@H]1c1ccc(Cl)cc1Cl [Ex 701]	41.3	–

Further lines, the compound ahead of its results:

Compound	pIC50 (BB2 receptor [1])	inhibition in vivo at 1 mg/kg (male Wistar rat; [4]) [%]	also measured
CS(=O)(=O)N[C@H]1CCCC[C@@H]1N1C(=O)c2ccccc2[C@@H](C(=O)NOCc2ccccn2)[C@@H]1c1ccc(Cl)cc1Cl [Ex 589]	8.24	73.9	–
RC-3095	–	–	efficacy for abnormal bowel motility (BB2 receptor [2]): effective; efficacy for abdominal symptom (abdominal muscle contraction reaction as index) (BB2 receptor [3]): effective
O=C(NCCc1ccccn1)[C@@H]1c2ccccc2C(=O)N([C@H](CO)Cc2ccccc2)[C@H]1c1ccc(Cl)cc1Cl [Ex 61]	7.89	–	–
CS(=O)(=O)N[C@H]1CCCC[C@@H]1N1C(=O)c2ccccc2[C@@H](C(=O)NOCc2cc(C(=O)O)cs2)[C@@H]1c1ccc(Cl)cc1Cl [Ex 542]	8.33	–	inhibition in vivo at 1 mg/kg (male Wistar rat; 1 h): 40%
C[C@@H](NC(=O)[C@@H]1c2ccccc2C(=O)N([C@H]2CCCC[C@@H]2NS(C)(=O)=O)[C@H]1c1ccc(Cl)cc1Cl)c1ccccc1 [Ex 236]	8.52	–	–
CS(=O)(=O)N[C@H]1CCCC[C@@H]1N1C(=O)c2ccccc2[C@@H](C(=O)NOCc2cccc(OCC(=O)O)c2)[C@@H]1c1ccc(Cl)cc1Cl [Ex 631]	8.35	53.8	–
CS(=O)(=O)N[C@H]1CCCC[C@@H]1N1C(=O)c2ccccc2[C@@H](C(=O)NOCc2cccc(C(=O)O)c2)[C@@H]1c1ccc(Cl)cc1Cl [Ex 560]	8.32	62.1	–
Cc1[nH]cnc1CN1CCc2c(c3ccccc3n2C)C1=O [alosetron]	–	–	improving rate for abdominal symptoms and diarrhea (5-HT3 receptor): 40 to 60%
